Data reported in ChEMBL document CHEMBL1201862, “PubChem BioAssay data set” (2004).
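Cultured in 96-well plates, cells were exposed to test compound for 48 hours across five concentrations. The concentration for 50% growth inhibition is given as GI50.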 Activity calls are given as the source filed them. Rule as the data show it: active = GI50 up to about 1.1 µM and inactive = higher.

How the values were obtained:
Experiment in all cases: NCI-60 cell line screen, 48 h
Hs-578T = test system: Hs-578T
UACC-257 = test system: UACC-257
SK-MEL-2 = test system: SK-MEL-2
OVCAR-4 = test system: OVCAR-4
MCF7 = test system: MCF7
HL-60 = test system: HL-60
K562 = test system: K562
A549 = test system: A549
786-0 = test system: 786-0
SNB-75 = test system: SNB-75
PC-3 = test system: PC-3
HCT-15 = test system: HCT-15
SF-539 = test system: SF-539
SK-OV-3 = test system: SK-OV-3
OVCAR-8 = test system: OVCAR-8
KM12 = test system: KM12
HOP-62 = test system: HOP-62
A498 = test system: A498
CAKI-1 = test system: CAKI-1
NCI/ADR-RES = test system: NCI/ADR-RES
SNB-19 = test system: SNB-19
SK-MEL-28 = test system: SK-MEL-28
SK-MEL-5 = test system: SK-MEL-5
SN12C = test system: SN12C
SW-620 = test system: SW-620
NCI-H226 = test system: NCI-H226
NCI-H460 = test system: NCI-H460
HCT-116 = test system: HCT-116
HT-29 = test system: HT-29
HCC 2998 = test system: HCC 2998
NCI-H23 = test system: NCI-H23
BT-549 = test system: BT-549
MDA-MB-435 = test system: MDA-MB-435
CCRF-CEM = test system: CCRF-CEM
COLO 205 = test system: COLO 205
MDA-MB-231 = test system: MDA-MB-231
DU-145 = test system: DU-145
SR = test system: SR
T47D = test system: T47D
MOLT-4 = test system: MOLT-4
M14 = test system: M14
RPMI-8226 = test system: RPMI-8226
SF-268 = test system: SF-268
HOP-92 = test system: HOP-92
IGROV-1 = test system: IGROV-1
UACC-62 = test system: UACC-62
U-251 = test system: U-251
ACHN = test system: ACHN
LOX IMVI = test system: LOX IMVI
OVCAR-3 = test system: OVCAR-3
OVCAR-5 = test system: OVCAR-5
RXF 393 = test system: RXF 393
Malme-3M = test system: Malme-3M
SF-295 = test system: SF-295
EKVX = test system: EKVX
TK-10 = test system: TK-10
NCI-H522 = test system: NCI-H522
UO-31 = test system: UO-31

C=CCc1cccc2cc(C(=O)Nc3ccccn3)c(=N)oc12
GI50 (Hs-578T): > 100 µM (inactive) | GI50 (UACC-257): > 100 µM (inactive) | GI50 (SK-MEL-2): > 100 µM (inactive) | GI50 (OVCAR-4): > 100 µM (inactive) | GI50 (MCF7): > 100 µM (inactive) | GI50 (HL-60): > 100 µM (inactive) | GI50 (K562): > 100 µM (inactive) | GI50 (A549): > 100 µM (inactive) | GI50 (786-0): 28.7 µM (inactive) | GI50 (SNB-75): > 100 µM (inactive) | GI50 (PC-3): > 100 µM (inactive) | GI50 (HCT-15): > 100 µM | GI50 (SF-539): 92.5 µM (inactive) | GI50 (SK-OV-3): > 100 µM (inactive) | GI50 (OVCAR-8): > 100 µM (inactive) | GI50 (KM12): > 100 µM (inactive) | GI50 (HOP-62): > 100 µM (inactive) | GI50 (A498): > 100 µM (inactive) | GI50 (CAKI-1): > 100 µM (inactive) | GI50 (NCI/ADR-RES): > 100 µM (inactive) | GI50 (SNB-19): > 100 µM (inactive) | GI50 (SK-MEL-28): > 100 µM (inactive) | GI50 (SK-MEL-5): > 100 µM (inactive) | GI50 (SN12C): > 100 µM (inactive) | GI50 (SW-620): > 100 µM (inactive) | GI50 (NCI-H226): > 100 µM (inactive) | GI50 (NCI-H460): > 100 µM (inactive) | GI50 (HCT-116): 56.6 µM (inactive) | GI50 (HT-29): > 100 µM (inactive) | GI50 (HCC 2998): > 100 µM (inactive) | GI50 (NCI-H23): > 100 µM (inactive) | GI50 (BT-549): > 100 µM (inactive) | GI50 (MDA-MB-435): > 100 µM (inactive) | GI50 (CCRF-CEM): > 100 µM (inactive) | GI50 (COLO 205): > 100 µM (inactive) | GI50 (MDA-MB-231): > 100 µM (inactive) | GI50 (DU-145): > 100 µM (inactive) | GI50 (SR): > 100 µM (inactive) | GI50 (T47D): 55.5 µM (inactive) | GI50 (MOLT-4): > 100 µM (inactive) | GI50 (M14): > 100 µM (inactive) | GI50 (RPMI-8226): > 100 µM (inactive) | GI50 (SF-268): > 100 µM (inactive) | GI50 (HOP-92): > 100 µM (inactive) | GI50 (IGROV-1): > 100 µM (inactive) | GI50 (UACC-62): > 100 µM (inactive) | GI50 (U-251): > 100 µM (inactive) | GI50 (ACHN): 45.4 µM (inactive) | GI50 (LOX IMVI): > 100 µM (inactive) | GI50 (OVCAR-3): > 100 µM (inactive) | GI50 (OVCAR-5): > 100 µM (inactive) | GI50 (RXF 393): > 100 µM (inactive)

N#Cc1cc2c(cc1Cl)Sc1nnc(Nc3ccccc3)n1S2(=O)=O
GI50 (Hs-578T): 2.3 µM (inactive) | GI50 (UACC-257): 1.79 µM (inactive) | GI50 (Malme-3M): 2.19 µM (inactive) | GI50 (SK-MEL-2): 2.55 µM (inactive) | GI50 (OVCAR-4): 2.68 µM (inactive) | GI50 (MCF7): 8.39 µM (inactive) | GI50 (HL-60): 3.05 µM (inactive) | GI50 (K562): 1.44 µM (inactive) | GI50 (A549): 5.94 µM (inactive) | GI50 (786-0): 2.32 µM (inactive) | GI50 (SNB-75): 3.4 µM (inactive) | GI50 (PC-3): 1.74 µM (inactive) | GI50 (HCT-15): 2.08 µM | GI50 (SF-539): 2.07 µM (inactive) | GI50 (SK-OV-3): 5.04 µM (inactive) | GI50 (SF-295): 3 µM (inactive) | GI50 (OVCAR-8): 2 µM (inactive) | GI50 (KM12): 2.06 µM (inactive) | GI50 (HOP-62): 1.57 µM (inactive) | GI50 (A498): 8.32 µM (inactive) | GI50 (CAKI-1): 1.72 µM (inactive) | GI50 (EKVX): 2.77 µM (inactive) | GI50 (NCI/ADR-RES): 1.78 µM (inactive) | GI50 (SNB-19): 2.3 µM (inactive) | GI50 (SK-MEL-28): 2.26 µM (inactive) | GI50 (SK-MEL-5): 2.43 µM (inactive) | GI50 (SN12C): 1.71 µM (inactive) | GI50 (SW-620): 1.52 µM (inactive) | GI50 (NCI-H226): 2.24 µM (inactive) | GI50 (NCI-H460): 2.71 µM (inactive) | GI50 (TK-10): 4.22 µM (inactive) | GI50 (HCT-116): 2.04 µM (inactive) | GI50 (HT-29): 2.12 µM (inactive) | GI50 (NCI-H522): 1.89 µM (inactive) | GI50 (HCC 2998): 1.55 µM (inactive) | GI50 (NCI-H23): 1.62 µM (inactive) | GI50 (BT-549): 2.47 µM (inactive) | GI50 (MDA-MB-435): 2.08 µM (inactive) | GI50 (CCRF-CEM): 1.56 µM (inactive) | GI50 (COLO 205): 2.18 µM (inactive) | GI50 (MDA-MB-231): 1.91 µM (inactive) | GI50 (DU-145): 2.01 µM (inactive) | GI50 (SR): 0.15 µM (active) | GI50 (T47D): 2.29 µM (inactive) | GI50 (MOLT-4): 2.02 µM (inactive) | GI50 (M14): 2.17 µM (inactive) | GI50 (RPMI-8226): 0.692 µM (active) | GI50 (SF-268): 2.82 µM (inactive) | GI50 (UO-31): 1.78 µM (inactive) | GI50 (HOP-92): 0.798 µM (active) | GI50 (IGROV-1): 2.2 µM (inactive) | GI50 (UACC-62): 1.83 µM (inactive) | GI50 (U-251): 1.87 µM (inactive) | GI50 (ACHN): 1.74 µM (inactive) | GI50 (LOX IMVI): 1.73 µM (inactive) | GI50 (OVCAR-3): 1.64 µM (inactive) | GI50 (OVCAR-5): 1.92 µM (inactive) | GI50 (RXF 393): 1.73 µM (inactive)

CCNCCC1(CC)C(=O)NC(=O)NC1=O
GI50 (Hs-578T): > 100 µM (inactive) | GI50 (UACC-257): > 100 µM (inactive) | GI50 (Malme-3M): > 100 µM (inactive) | GI50 (SK-MEL-2): > 100 µM (inactive) | GI50 (OVCAR-4): > 100 µM (inactive) | GI50 (MCF7): > 100 µM (inactive) | GI50 (HL-60): 0.0288 µM (active) | GI50 (K562): > 100 µM (inactive) | GI50 (A549): > 100 µM (inactive) | GI50 (786-0): > 100 µM (inactive) | GI50 (SNB-75): > 100 µM (inactive) | GI50 (PC-3): > 100 µM (inactive) | GI50 (HCT-15): > 100 µM | GI50 (SF-539): > 100 µM (inactive) | GI50 (SK-OV-3): > 100 µM (inactive) | GI50 (SF-295): > 100 µM (inactive) | GI50 (OVCAR-8): > 100 µM (inactive) | GI50 (KM12): > 100 µM (inactive) | GI50 (HOP-62): > 100 µM (inactive) | GI50 (A498): > 100 µM (inactive) | GI50 (CAKI-1): > 100 µM (inactive) | GI50 (EKVX): > 100 µM (inactive) | GI50 (NCI/ADR-RES): > 100 µM (inactive) | GI50 (SNB-19): > 100 µM (inactive) | GI50 (SK-MEL-28): > 100 µM (inactive) | GI50 (SK-MEL-5): > 100 µM (inactive) | GI50 (SN12C): > 100 µM (inactive) | GI50 (SW-620): > 100 µM (inactive) | GI50 (NCI-H226): > 100 µM (inactive) | GI50 (NCI-H460): > 100 µM (inactive) | GI50 (TK-10): > 100 µM (inactive) | GI50 (HCT-116): > 100 µM (inactive) | GI50 (HT-29): > 100 µM (inactive) | GI50 (NCI-H522): > 100 µM (inactive) | GI50 (NCI-H23): > 100 µM (inactive) | GI50 (BT-549): > 100 µM (inactive) | GI50 (MDA-MB-435): > 100 µM (inactive) | GI50 (COLO 205): > 100 µM (inactive) | GI50 (MDA-MB-231): > 100 µM (inactive) | GI50 (DU-145): > 100 µM (inactive) | GI50 (SR): > 100 µM (inactive) | GI50 (T47D): > 100 µM (inactive) | GI50 (MOLT-4): > 100 µM (inactive) | GI50 (M14): > 100 µM (inactive) | GI50 (RPMI-8226): > 100 µM (inactive) | GI50 (SF-268): > 100 µM (inactive) | GI50 (UO-31): > 100 µM (inactive) | GI50 (HOP-92): > 100 µM (inactive) | GI50 (IGROV-1): > 100 µM (inactive) | GI50 (UACC-62): > 100 µM (inactive) | GI50 (U-251): > 100 µM (inactive) | GI50 (ACHN): > 100 µM (inactive) | GI50 (LOX IMVI): > 100 µM (inactive) | GI50 (OVCAR-3): > 100 µM (inactive) | GI50 (OVCAR-5): > 100 µM (inactive) | GI50 (RXF 393): > 100 µM (inactive)
